Source: patent US20140315886A1, “QUINAZOLINES AS THERAPEUTIC COMPOUNDS AND RELATED METHODS OF USE” (OTSUKA PHARMACEUTICAL CO., LTD., priority 2011, published 2014)

The compounds below were run against T1, purified STEP46 enzyme (Homo sapiens, UniProt P54829) (assay: STEP46 biochemical assay (DiFMUP fluorescence phosphatase assay)). Details: DiFMUP 10 μM, read-out: STEP IC50.
T1 sequence (P54829 197-565 limits assumed): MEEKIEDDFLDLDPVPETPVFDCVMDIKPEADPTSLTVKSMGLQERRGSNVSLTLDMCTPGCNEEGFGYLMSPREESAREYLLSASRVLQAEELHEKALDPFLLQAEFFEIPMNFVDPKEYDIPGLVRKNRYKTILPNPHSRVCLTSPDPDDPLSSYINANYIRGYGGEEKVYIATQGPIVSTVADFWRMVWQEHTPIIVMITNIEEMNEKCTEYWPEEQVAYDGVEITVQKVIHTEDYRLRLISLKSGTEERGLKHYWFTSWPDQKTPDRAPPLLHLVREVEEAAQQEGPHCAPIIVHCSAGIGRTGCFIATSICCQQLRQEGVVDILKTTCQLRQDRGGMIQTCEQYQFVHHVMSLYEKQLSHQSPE
Description: Serial dilutions of compounds were performed in 100% DMSO and 1 uL of compounds were dispensed into 384-well black polystyrene plates (Corning, N.Y.). Compounds were incubated with 24 uL of buffer containing 50 mM Hepes, 1 mM DTT, 0.02% Brij35, 1 ng/well purified STEP46 enzyme for […] at room temperature. The reaction was initiated by addition of 25 uL of DiFMUP (6,8-difluoro-4-methylumbelliferyl phosphate) (InVitrogen, CA) with a final concentration of 10 μM and incubated at 27° C. for 90 mM Final DMSO concentration is 2%. Plates were read with florescence intensity at excitation/emission of 360/460 nm using a PheraStar plate reader (BMG Labtech, NC).
Data were expressed as percentage (%) inhibition of enzyme activity. 0% inhibition is defined as the RFUs (relative fluorescence units) in the absence of compounds and 100% inhibition is defined as RFUs in the absence of STEP46 enzyme. IC50 values of compounds with inhibitory activity against STEP46 were determined by GraphPad Prism (version 4.03) using four parameter logistic equation. Some compounds act as activators. For compounds showing STEP46 enzymatic activation, data are represented as percentage of inhibition but with negative values at three representative concentrations (25, 50 and 100 uM).

Row | Structure (SMILES) | IC50
1 | CCOc1ccc2nc(-c3cccnc3)nc(N3CCc4ccc(Cl)cc43)c2c1 [Compound 5] | 1000 to 10000 nM
2 | COc1ccc2c(N3CCc4cc(Cl)ccc43)nc(-c3cccnc3)nc2c1 [Compound 12] | 1000 to 10000 nM
3 | Cc1ccc2c(c1)CCN2c1nc(-c2cccnc2)nc2cc(Br)ccc12 [Compound 16] | 1000 to 10000 nM
4 | Cc1ccc2c(c1)N(c1nc(-c3cccnc3)nc3ccc(Br)cc13)CC2 [Compound 20] | 1000 to 10000 nM
5 | COc1ccc2nc(-c3cccnc3)nc(Nc3ccc(F)cn3)c2c1 [Compound 24] | 1000 to 10000 nM
6 | COc1ccc2nc(-c3cccnc3)nc(Nc3cncc(F)c3)c2c1 [Compound 25] | 1000 to 10000 nM
7 | COc1ccc2nc(-c3cccnc3)nc(Nc3ccc(F)nc3)c2c1 [Compound 35] | 1000 to 10000 nM
8 | CCc1nc2ccc(Nc3nc(-c4cccnc4)nc4ccc(OC)cc34)cc2o1 [Compound 40] | > 10000 nM
9 | COc1ccc2nc(-c3cccnc3)nc(Nc3ccnc(F)c3)c2c1 [Compound 43] | < 1000 nM
10 | COc1ccc2nc(-c3cccnc3)nc(Nc3cc(Cl)ccn3)c2c1 [Compound 45, N-(4-chloropyridin-2-yl)-6-methoxy-2-(pyridin-3-yl)quinazolin-4-amine] | > 10000 nM
11 | Fc1cncc(Nc2nc(-c3cccnc3)nc3ccc(Cl)cc23)c1 [Compound 48] | 1000 to 10000 nM
12 | Fc1cncc(Nc2nc(-c3cccnc3)nc3cc(Cl)ccc23)c1 [Compound 50] | 1000 to 10000 nM
13 | COc1ccc2c(Nc3ccc(C)cn3)nc(-c3cccnc3)nc2c1 [Compound 55] | 1000 to 10000 nM
14 | CCOc1ccc2nc(-c3cccnc3)nc(Nc3ccc(C)cn3)c2c1 [Compound 56] | 1000 to 10000 nM
15 | Clc1ccc2c(N3CCc4cccnc43)nc(-c3cccnc3)nc2c1 [Compound 62] | 1000 to 10000 nM
16 | CCOc1ccc2nc(-c3cccnc3)nc(Nc3cncc(C)c3)c2c1 [Compound 65] | 1000 to 10000 nM
17 | Cc1cncc(Nc2nc(-c3cccnc3)nc3ccc(Cl)cc23)c1 [Compound 66] | 1000 to 10000 nM
18 | CCOc1ccc2nc(-c3cccnc3)nc(Nc3cncc(Cl)c3)c2c1 [Compound 69] | < 1000 nM
19 | CCOc1ccc2nc(-c3ccnnc3)nc(Nc3ccccc3C(N)=O)c2c1 [Compound 71] | 1000 to 10000 nM
20 | Cc1ccc2c(c1)CCN2c1nc(-c2cccnc2)nc2ccc(-c3ccc(F)cc3F)cc12 [Compound 73] | 1000 to 10000 nM
21 | Cc1ccc2c(c1)CCN2c1nc(-c2cccnc2)nc2ccc(-c3cccc(F)c3)cc12 [Compound 78] | 1000 to 10000 nM
22 | Cc1ccc2c(c1)CCN2c1nc(-c2cccnc2)nc2ccc(-c3cc(F)cc(F)c3)cc12 [Compound 80] | > 10000 nM
23 | O=[N+]([O-])c1cccc(-c2ccc3nc(-c4cccnc4)nc(N4CCc5cc(Cl)ccc54)c3c2)c1 [Compound 82] | 1000 to 10000 nM
24 | Fc1ccc(-c2ccc3nc(-c4cccnc4)nc(N4CCc5cc(Cl)ccc54)c3c2)cc1 [Compound 86] | 1000 to 10000 nM
25 | COc1ccc2c(c1)CCN2c1nc(-c2cccnc2)nc2ccc(-c3ccc(F)cc3)cc12 [Compound 90] | < 1000 nM
26 | Fc1ccc(-c2ccc3nc(-c4cccnc4)nc(N4CCc5cc(F)ccc54)c3c2)cc1 [Compound 91] | 1000 to 10000 nM
27 | Clc1ccc2c(c1)CCN2c1nc(-c2cccnc2)nc2cc(-c3ccncc3)ccc12 [Compound 100] | 1000 to 10000 nM

Now from value to compound:

Row | IC50 | Structure (SMILES)
28 | 1000 to 10000 nM | COc1ccc2nc(-c3cccnc3)nc(N3CCc4ccc(Cl)cc43)c2c1 [Compound 4]
29 | > 10000 nM | COc1ccc2nc(-c3cccnc3)nc(N3CCc4cc(Br)ccc43)c2c1 [Compound 6]
30 | 1000 to 10000 nM | Clc1ccc2c(c1)CCN2c1nc(-c2cccnc2)nc2cc(Br)ccc12 [Compound 14]
31 | 1000 to 10000 nM | Brc1ccc2nc(-c3cccnc3)nc(N3CCc4ccccc43)c2c1 [Compound 19]
32 | > 10000 nM | COc1ccc2c(c1)CCN2c1nc(-c2cccnc2)nc2ccc(Br)cc12 [Compound 21]
33 | 1000 to 10000 nM | Fc1ccc2c(c1)N(c1nc(-c3cccnc3)nc3ccc(Br)cc13)CC2 [Compound 22]
34 | 1000 to 10000 nM | Clc1ccc2c(c1)N(c1nc(-c3cccnc3)nc3ccc(Br)cc13)CC2 [Compound 23]
35 | 1000 to 10000 nM | COc1ccc2nc(-c3cccnc3)nc(Nc3cc(F)ccn3)c2c1 [Compound 31]
36 | > 10000 nM | COc1ccc2nc(-c3cccnc3)nc(Nc3cccc(F)n3)c2c1 [Compound 32]
37 | 1000 to 10000 nM | COc1ccc2nc(-c3cccnc3)nc(Nc3ccc4nc(C)oc4c3)c2c1 [Compound 39]
38 | 1000 to 10000 nM | COc1ccc2nc(-c3cccnc3)nc(-n3ccc4cccnc43)c2c1 [Compound 41]
39 | 1000 to 10000 nM | COc1ccc2nc(-c3cccnc3)nc(Nc3ccc(C#N)cn3)c2c1 [Compound 46]
40 | 1000 to 10000 nM | CCOc1ccc2nc(-c3cccnc3)nc(Nc3cncc(F)c3)c2c1 [Compound 47]
41 | 1000 to 10000 nM | Fc1ccc(Nc2nc(-c3cccnc3)nc3cc(Cl)ccc23)nc1 [Compound 52]
42 | 1000 to 10000 nM | Cc1ccc(Nc2nc(-c3cccnc3)nc3ccc(Cl)cc23)nc1 [Compound 57]
43 | 1000 to 10000 nM | Clc1ccc2nc(-c3cccnc3)nc(N3CCc4cccnc43)c2c1 [Compound 61]
44 | 1000 to 10000 nM | CCOc1ccc2nc(-c3cccnc3)nc(Nc3cc(C)c(F)cn3)c2c1 [Compound 67]

Row | IC50 | Structure (SMILES)
45 | < 1000 nM | Clc1cncc(Nc2nc(-c3cccnc3)nc3ccc(Cl)cc23)c1 [Compound 70]
46 | 1000 to 10000 nM | Fc1ccc(-c2ccc3nc(-c4cccnc4)nc(N4CCc5cc(Cl)ccc54)c3c2)c(F)c1 [Compound 72]
47 | 1000 to 10000 nM | Cc1ccc2c(c1)CCN2c1nc(-c2cccnc2)nc2ccc(-c3cccc(F)c3F)cc12 [Compound 74]
48 | 1000 to 10000 nM | Fc1cccc(-c2ccc3nc(-c4cccnc4)nc(N4CCc5cc(Cl)ccc54)c3c2)c1F [Compound 75]
49 | 1000 to 10000 nM | Clc1ccc2c(c1)CCN2c1nc(-c2cccnc2)nc2ccc(-c3ccc4c(c3)OCO4)cc12 [Compound 76]
50 | 1000 to 10000 nM | Cc1ccc2c(c1)CCN2c1nc(-c2cccnc2)nc2ccc(-c3ccc(F)cc3)cc12 [Compound 79]
51 | 1000 to 10000 nM | Cc1ccc2c(c1)CCN2c1nc(-c2cccnc2)nc2ccc(-c3ccc(C#N)cc3)cc12 [Compound 81]
52 | < 1000 nM | O=[N+]([O-])c1ccc2c(c1)CCN2c1nc(-c2cccnc2)nc2ccc(-c3cccc(F)c3F)cc12 [Compound 83]
53 | < 1000 nM | O=[N+]([O-])c1ccc2c(c1)CCN2c1nc(-c2cccnc2)nc2ccc(-c3ccc(F)cc3)cc12 [Compound 87]
54 | 1000 to 10000 nM | Fc1ccc(-c2ccc3nc(-c4cccnc4)nc(N4CCc5ccccc54)c3c2)cc1 [Compound 88]
55 | 1000 to 10000 nM | Fc1ccc(-c2ccc3nc(-c4cccnc4)nc(N4CCc5ccc(Cl)cc54)c3c2)cc1 [Compound 93]
56 | 1000 to 10000 nM | Fc1ccc(-c2ccc3c(N4CCc5cc(Cl)ccc54)nc(-c4cccnc4)nc3c2)c(F)c1 [Compound 94]
57 | 1000 to 10000 nM | Fc1ccccc1-c1ccc2c(N3CCc4cc(Cl)ccc43)nc(-c3cccnc3)nc2c1 [Compound 95]
58 | 1000 to 10000 nM | Fc1cccc(-c2ccc3c(N4CCc5cc(Cl)ccc54)nc(-c4cccnc4)nc3c2)c1 [Compound 96]
59 | 1000 to 10000 nM | Fc1ccc(-c2ccc3c(N4CCc5cc(Cl)ccc54)nc(-c4cccnc4)nc3c2)cc1 [Compound 97]
60 | 1000 to 10000 nM | Cc1ccc2c(c1)CCN2c1nc(-c2cccnc2)nc2cc(-c3cc(F)ccc3F)ccc12 [Compound 98]
61 | < 1000 nM | Clc1ccc2c(c1)CCN2c1nc(-c2cccnc2)nc2cc(-c3cccnc3)ccc12 [Compound 99]
